Measurements reported in patent US20120122991A1, “METHOD FOR TREATING CANCER BY INCREASING AMP-ACTIVATED KINASE ACTIVITY” (Dana-Farber Cancer Institute, Inc., priority 2003, published 2012).

Test system: mTOR signaling
Test: Immunoblot and cap-complex analysis of mTOR signaling (S6K1, S6, 4E-BP1, GSK-3) in MEFs
Assay type: cell-based, mouse
Procedure: FIG. 6A: Subconfluent cycling littermate-matched primary MEFs of the indicated genotype were left untreated (NT) or were treated with 2 mM AICAR for 2 h. Total cell extracts were immunoblotted for phospho-Thr172 AMPK (P-AMPK), phospho Ser79 ACC (P-ACC), phospho-Thr389 S6K1 (P-S6K1), phospho-Ser9 GSK-3b (P-GSK-3), and phospho-Ser235/236 S6 ribosomal protein (P-S6). FIG. 6B: An immortalized LKB1−/− MEF cell line was reconstituted with vector (v), wild-type (wt) or kinase-dead (kd) human LKB1-expressing retroviruses. Cells were treated as in FIG. 6A. eIF4E was used as a loading control. *represents a cross-reactive band with the anti-LKB1 antisera as characterized previously (Shaw et al. (2004) Proc. Natl. Acad. Sci. USA 101, 3329-3335). FIG. 6C: Endogenous 5′ cap complexes were isolated from LKB1 primary MEFs as in A. 10% of the total cell lysate is shown in the left panels; cap complexes purified on 7-methyl sepharose are shown in right panels. Each were immunoblotted with total 4E-BP1 and eIF4E antibodies. eIF4E is shown as a loading control. FIG. 6D: Hela cells (which are LKB1-deficient) were transiently transfected with vector, FLAG-tagged wild-type, or kinase-dead LKB1 along with an HA-tagged S6K1 or an HA-tagged 4E-BP1 construct, then treated where indicated with 2 mM AICAR for 2 h. S6K1-immunoprecipitates were immunoblotted for activating phosphorylation of S6K1 as before, as well with anti-HA to control for levels. Lysates were immunoblotted with anti-FLAG to detect levels of LKB1 and with anti-HA to detect phosphorylation induced changes in 4E-BP1 mobility on SDS-PAGE.
FIGS. 8A and 8B: Littermate matched LKB1- or TSC2-deficient MEFs were compared to wild-type MEFs in their response to a number of stress stimuli known to inhibit mTOR signaling (wild-type cells denoted +, −/− cells simply−). mTOR signaling was examined by immunoblotting for phospho-S6 as in FIG. 6. Activation of Akt and Erk were examined using their specific activation state phospho-specific antibodies (Ser473 for Akt, Thr202/Tyr204 for Erk). As before, eIF4E is used as a loading control. All MEFs were serum-deprived in DMEM alone for 24 h. Indicated samples were then placed in fresh media containing 10% serum, with or without […] rapamycin or 2 mM AICAR, all for 90 min. Amino acid deprivation (-AA) was performed by placing the serum-starved cells into D-PBS with 10% dialyzed serum for 90 min. […] Cells were placed in normal media, glucose free media with 10% dialyzed serum, or glucose-free media with 10% dialyzed serum containing 20 nM rapamycin for 6 or 24 h as indicated. LKB1 genotype indicated at bottom. eIF4E is used as a loading control. FIG. 8D: Cells were treated for 24 h as in FIG. 8C, and viability was quantified by MTT assays performed in triplicate on cells of the indicated genotypes. Cell death is expressed as a percentage of the untreated controls.
Cells were cultured and retrovirally infected as previously described (Shaw et al. (2004), Proc. Natl. Acad. Sci. USA 101:3329-3335). […] Cells were serum-starved in DMEM without serum 14 h post-transfection, then 8 h later the media was replaced with fresh DMEM with 10% FBS or DMEM with 10% FBS and 2 mM AICAR. For the MEF experiments in FIG. 6: cells were plated at 1×10^6 cells/10 cm dish, then the next day the media was replaced with fresh DMEM with 10% FBS or DMEM with 10% FBS and 2 mM AICAR. For the MEF experiments in FIG. 8A,B: 1×10^6 cells of each genotype were plated and the next day serum-starved for 24 h. Cells were either lysed as such or their media replaced with fresh DMEM with 10% FBS, DMEM with 10% FBS and 2 mM AICAR, DMEM with 10% FBS and 20 nM rapamycin, or D-PBS with 10% dialyzed FBS for 90 mins.

NC(=O)c1ncn([C@@H]2O[C@H](CO)[C@@H](O)[C@H]2O)c1N [AICAR, 5-aminoimidazole-4-carboxamide 1-β-D-ribofuranoside]
S6K1 activity (Lkb1-/- MEFs, serum-starved 24 h, 10% serum with 2 mM AICAR for 90 min): failed to down-regulate S6K1 activity | hypophosphorylated 4E-BP1 in total cell lysates (Lkb1-deficient cells, AICAR treatment): near absence of hypophosphorylated 4E-BP1 | levels of active S6K1 (Lkb1-deficient fibroblasts, 2 mM AICAR for 2 h): remained high | growth factor signaling to GSK-3 (MEFs, 2 mM AICAR for 2 h): unaffected | S6K1 activity (wild-type MEFs, 2 mM AICAR for 2 h): inhibited | level of hypophosphorylated 4E-BP1 (wild-type MEFs, AICAR treatment): significantly increases | 4E-BP1 association with the cap complex (wild-type MEFs, AICAR treatment, 7-methyl GTP sepharose): increased 4E-BP1 association with the cap complex
